Holding throughout (format): functional
The test system of experiment [1] is Bacillus subtilis. The experiment in a line: Antibacterial activity against Bacillus subtilis ATCC 6633 after 18 hrs by agar dilution method. The following applies: ATCC 6633, 18 h.
The test system of experiment [2] is Staphylococcus epidermidis. The experiment in a line: Antibacterial activity against Staphylococcus epidermidis ATCC 12228 after 18 hrs by agar dilution method. The following applies: ATCC 12228, 18 h. In general terms: In agar dilution the substance is mixed into plates at graded concentrations.
For experiment [3], the system named is Staphylococcus aureus. The experiment in a line: Antibacterial activity against Staphylococcus aureus ATCC 6538 after 18 hrs by agar dilution method. The following applies: ATCC 6538, 18 h.
Experiment [4] concerns Pseudomonas aeruginosa. The experiment in a line: Antibacterial activity against Pseudomonas aeruginosa ATCC 9027 after 18 hrs by agar dilution method. To be noted: ATCC 9027, 18 h.
For experiment [5], the system named is Klebsiella pneumoniae. The experiment in a line: Antibacterial activity against Klebsiella pneumoniae ATCC 10031 after 18 hrs by agar dilution method. To be noted: ATCC 10031, 18 h.
The test system of experiment [6] is Escherichia coli. The experiment in a line: Antibacterial activity against Escherichia coli ATCC 8739 after 18 hrs by agar dilution method. The following applies: ATCC 8739, 18 h.

Each structure is given as a SMILES string. Converted amounts (≈) assume the structure as drawn. Bounds are passed on as bounds.

The source of these data is ChEMBL document CHEMBL3046802, “7-Piperazinylquinolones with methylene-bridged nitrofuran scaffold as new antibacterial agents” (2013).

A word on the MIC: it is the least concentration at which growth counts as inhibited. Lower therefore signals greater potency. Consider `CCn1cc(C(=O)O)c(=O)c2cc(F)c(N3CCN(Cc4ccc([N+](=O)[O-])o4)CC3)cc21`, for which the MIC is 12.5 µg/mL (≈ 28.1 µM) in experiment [1]; 3.13 µg/mL (≈ 7.04 µM) in experiment [2]; 1.56 µg/mL (≈ 3.51 µM) in experiment [3]; 25 µg/mL (≈ 56.3 µM) in experiment [4]; 6.25 µg/mL (≈ 14.1 µM) in experiment [5]; 6.25 µg/mL (≈ 14.1 µM) in experiment [6].
Regarding `O=C(O)c1cn(C2CC2)c2cc(N3CCN(Cc4ccc([N+](=O)[O-])o4)CC3)c(F)cc2c1=O`, the MIC in experiment [1] is 0.78 µg/mL (≈ 1.71 µM); in experiment [2] it was 1.56 µg/mL (≈ 3.42 µM); in experiment [3], 0.39 µg/mL (≈ 0.854 µM); in experiment [4], 3.13 µg/mL (≈ 6.86 µM); in experiment [5], 0.39 µg/mL (≈ 0.854 µM); in experiment [6], 1.56 µg/mL (≈ 3.42 µM).
For the molecule `COc1c(N2CCN(Cc3ccc([N+](=O)[O-])o3)C(C)C2)c(F)cc2c(=O)c(C(=O)O)cn(C3CC3)c12` (stereo unspecified), the MIC in experiment [1] came out at 3.13 µg/mL (≈ 6.25 µM); in experiment [2], 1.56 µg/mL (≈ 3.12 µM); in experiment [3], 0.78 µg/mL (≈ 1.56 µM); in experiment [4], 6.25 µg/mL (≈ 12.5 µM); in experiment [5], 1.56 µg/mL (≈ 3.12 µM); in experiment [6] it was 3.13 µg/mL (≈ 6.25 µM).
As to `CCn1cc(C(=O)O)c(=O)c2cc(F)c(N3CCN(Cc4ccc([N+](=O)[O-])o4)CC3)nc21`, the MIC in experiment [1] is 6.25 µg/mL (≈ 14 µM); in experiment [2], 3.13 µg/mL (≈ 7.03 µM); in experiment [3], 0.39 µg/mL (≈ 0.876 µM); in experiment [4] it was 12.5 µg/mL (≈ 28.1 µM); in experiment [5], 3.13 µg/mL (≈ 7.03 µM); in experiment [6], 6.25 µg/mL (≈ 14 µM).
For the molecule `C[C@H]1COc2c(N3CCN(Cc4ccc([N+](=O)[O-])o4)CC3)c(F)cc3c(=O)c(C(=O)O)cn1c23`, the MIC turned out to be 0.78 µg/mL (≈ 1.65 µM) in experiment [1]; 0.39 µg/mL (≈ 0.826 µM) in experiment [2]; 1.56 µg/mL (≈ 3.3 µM) in experiment [3]; 12.5 µg/mL (≈ 26.5 µM) in experiment [4]; 1.56 µg/mL (≈ 3.3 µM) in experiment [5]; 0.78 µg/mL (≈ 1.65 µM) in experiment [6].
As to `O=C(O)c1cn(C2CC2)c2cc(N3CCN(Cc4ccc([N+](=O)[O-])cc4)CC3)c(F)cc2c1=O`, the MIC amounted to 3.13 µg/mL (≈ 6.71 µM) in experiment [1]; 3.13 µg/mL (≈ 6.71 µM) in experiment [2]; 3.13 µg/mL (≈ 6.71 µM) in experiment [3]; 50 µg/mL (≈ 107 µM) in experiment [4]; 12.5 µg/mL (≈ 26.8 µM) in experiment [5]; 3.13 µg/mL (≈ 6.71 µM) in experiment [6].
On to `CCn1cc(C(=O)O)c(=O)c2cc(F)c(N3CCN(Cc4ccc([N+](=O)[O-])o4)C(C)C3)c(F)c21` (racemic), for which the MIC in experiment [1] was found to be 0.097 µg/mL (≈ 0.204 µM); in experiment [2] it was 3.13 µg/mL (≈ 6.57 µM); in experiment [3], 1.56 µg/mL (≈ 3.27 µM); in experiment [4] it was 25 µg/mL (≈ 52.5 µM); in experiment [5], 6.25 µg/mL (≈ 13.1 µM); in experiment [6], 0.39 µg/mL (≈ 0.819 µM).
`O=C(O)c1cn(C2CC2)c2cc(N3CCNCC3)c(F)cc2c1=O` [CIPROFLOXACIN]: the MIC stood at 0.195 µg/mL (≈ 0.589 µM) in experiment [1]; 0.195 µg/mL (≈ 0.589 µM) in experiment [2]; 0.195 µg/mL (≈ 0.589 µM) in experiment [3]; 0.39 µg/mL (≈ 1.18 µM) in experiment [4]; 0.049 µg/mL (≈ 0.148 µM) in experiment [5]; 0.097 µg/mL (≈ 0.293 µM) in experiment [6].
With `CCn1cc(C(=O)O)c(=O)c2cc(F)c(N3CCNCC3)nc21` [ENOXACIN], the minimum inhibitory concentration (MIC) is 0.195 µg/mL (≈ 0.609 µM) in experiment [1]; 0.78 µg/mL (≈ 2.44 µM) in experiment [2]; 0.39 µg/mL (≈ 1.22 µM) in experiment [3]; 1.56 µg/mL (≈ 4.87 µM) in experiment [4]; 0.78 µg/mL (≈ 2.44 µM) in experiment [5]; 0.39 µg/mL (≈ 1.22 µM) in experiment [6].
Take `COc1c(N2CCNC(C)C2)c(F)cc2c(=O)c(C(=O)O)cn(C3CC3)c12` (stereo unspecified) [GATIFLOXACIN]: the MIC in experiment [1] came out at 0.78 µg/mL (≈ 2.08 µM); in experiment [2], 0.78 µg/mL (≈ 2.08 µM); in experiment [3] it was 0.78 µg/mL (≈ 2.08 µM); in experiment [4], 0.78 µg/mL (≈ 2.08 µM); in experiment [5], 0.195 µg/mL (≈ 0.519 µM); in experiment [6], 1.56 µg/mL (≈ 4.16 µM).
For the molecule `C[C@H]1COc2c(N3CCN(C)CC3)c(F)cc3c(=O)c(C(=O)O)cn1c23.C[C@H]1COc2c(N3CCN(C)CC3)c(F)cc3c(=O)c(C(=O)O)cn1c23.O` [LEVOFLOXACIN], the MIC is 0.78 µg/mL in experiment [1]; 0.39 µg/mL in experiment [2]; 0.39 µg/mL in experiment [3]; 3.13 µg/mL in experiment [4]; 0.39 µg/mL in experiment [5].
Take `C[C@H]1COc2c(N3CCNCC3)c(F)cc3c(=O)c(C(=O)O)cn1c23` [N-DESMETHYL LEVOFLOXACIN]: the MIC in experiment [1] was 1.56 µg/mL (≈ 4.49 µM); in experiment [2], 1.56 µg/mL (≈ 4.49 µM); in experiment [3], 3.13 µg/mL (≈ 9.01 µM); in experiment [4], above 6.25 µg/mL; in experiment [5] it was 0.39 µg/mL (≈ 1.12 µM).
Regarding `CCn1cc(C(=O)O)c(=O)c2cc(F)c(N3CCNCC3)cc21` [NORFLOXACIN], the MIC in experiment [1] is 0.195 µg/mL (≈ 0.611 µM); in experiment [2], 0.39 µg/mL (≈ 1.22 µM); in experiment [3], 0.39 µg/mL (≈ 1.22 µM); in experiment [4] it was 1.56 µg/mL (≈ 4.89 µM); in experiment [5] it was 0.39 µg/mL (≈ 1.22 µM); in experiment [6], 0.195 µg/mL (≈ 0.611 µM).
